{"source": "paper PMC4658133", "about": "“Intrinsic Levanase Activity of Bacillus subtilis 168 Levansucrase (SacB)” (PLoS ONE, 2015)", "target": "T1, levansucrase (SacB) (Bacillus subtilis, UniProt P05655)", "T1 construct": "expressed in Escherichia coli BL21, ion exchange purified", "T1 sequence (P05655 30-473)": "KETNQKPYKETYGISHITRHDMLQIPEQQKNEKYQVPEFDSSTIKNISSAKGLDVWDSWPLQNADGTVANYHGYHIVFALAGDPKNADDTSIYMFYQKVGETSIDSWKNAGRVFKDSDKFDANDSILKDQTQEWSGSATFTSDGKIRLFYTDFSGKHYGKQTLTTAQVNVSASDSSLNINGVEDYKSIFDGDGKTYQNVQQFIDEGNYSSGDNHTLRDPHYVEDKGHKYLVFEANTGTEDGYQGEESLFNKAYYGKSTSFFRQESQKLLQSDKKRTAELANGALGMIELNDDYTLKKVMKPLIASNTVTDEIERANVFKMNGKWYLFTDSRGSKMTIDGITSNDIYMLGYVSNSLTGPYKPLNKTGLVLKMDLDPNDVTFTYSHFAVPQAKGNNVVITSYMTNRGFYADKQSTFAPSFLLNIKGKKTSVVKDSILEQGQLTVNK", "experiment": "HPAEC-PAD product profile after […] h", "format": "biochemical", "conditions": "fructosyl acceptor, 127 mM; donor 2.5 mM LMw levan; 50 mM sodium acetate, 1 mM CaCl2, pH 6.0"}
{"smiles": "OC[C@H]1OC(O)[C@H](O)[C@@H](O)[C@@H]1O", "note": "(stereo partly shown) [glucose]", "values": [{"measurement": "HPAEC-PAD product profile after 5 h", "value": "These profile results from the fructosyl transfer from levan to glucose"}]}
